The source of these data is US7268146B2, “Ring fused pyrazole derivatives as CRF antagonists” (Palo Alto LLC, priority 2001, dated 2007).

The melting point is the temperature of the solid-liquid transition.

Where a name gives a salt, the structure may show the parent alone.

`Cc1cc(C)c(N2CCCc3cn(C)nc32)c(Cl)c1` [Example 5m, 7-(2-Chloro-4,6-dimethylphenyl)-2-methyl-4,5,6,7-tetrahydro-2H-pyrazolo[3,4-b]pyridine] yielded a melting point of 97 to 98 °C. Then `Cc1cc(C)c(N2CCCc3c2nn(C)c3C(=O)O)c(C)c1` [Example 8b, 7-(2,4,6-Trimethylphenyl)-2-methyl-4,5,6,7-tetrahydro-2H-pyrazolo[3,4-b]pyridine-3-carboxylic acid], with 228.6 to 233.9 °C; and `CCCC(O)(CCC)c1c2c(nn1C)N(c1c(C)cc(C)cc1C)CCCC2` [Example 5d, 4-[2-Methyl-8-(2,4,6-trimethylphenyl)-2,4,5,6,7,8-hexahydro-1,2,8-triazaazulen-3-yl]heptan-4-ol], with 87 to 91.1 °C. On to `CCC(O)c1c2c(nn1C)N(c1c(C)cc(C)cc1C)CCC2` (stereo not drawn) [Example 5j, 1-[2-Methyl-7-(2,4,6-trimethylphenyl)-4,5,6,7-tetrahydro-2H-pyrazolo[3,4-b]pyridin-3-yl]propan-1-ol], for which the melting point lay in the range of 179.4 to 180.9 °C. Then `Cc1cc(C)c(N2CCCc3c2nn(C)c3NC(=O)OC(C)(C)C)c(Cl)c1` [Example 8c, [7-(2-Chloro-4,6-dimethylphenyl)-2-methyl-4,5,6,7-tetrahydro-2H-pyrazolo[3,4-b]pyridin-3-yl]carbamic acid tert-butyl ester], with 171.4 to 175.7 °C. Then `CCCC(O)(CCC)c1c2c(nn1C)N(c1c(C)cc(C)cc1Cl)CCC2` [Example 5a, 4-[7-(2-Chloro-4,6-dimethylphenyl)-2-methyl-4,5,6,7-tetrahydro-2H-pyrazolo[3,4-b]pyridin-3-yl]heptan-4-ol], with 129 to 130 °C; and `CCCC(O)(c1nccs1)c1c2c(nn1C)N(c1c(C)cc(C)cc1C)CCC2` (stereo not drawn) [Example 5h, 1-[2-Methyl-7-(2,4,6-trimethylphenyl)-4,5,6,7-tetrahydro-2H-pyrazolo[3,4-b]pyridin-3-yl]-1-thiazol-2-ylbutan-1-ol], with 160.1 to 165.6 °C; and `CCCN(CCC)c1c2c(nn1C)N(c1c(C)cc(C)cc1Cl)CCC2` [Example 9a, [7-(2-Chloro-4,6-dimethylphenyl)-2-methyl-4,5,6,7-tetrahydro-2H-pyrazolo[3,4-b]pyridin-3-yl]dipropylamine], with 90 to 91 °C.

In the case of `CCC(CC)Nc1c2c(nn1C)N(c1c(C)cc(C)cc1C)CCC2` [Example 9af, (1-Ethylpropyl)-[2-methyl-7-(2,4,6-trimethyl-phenyl)-4,5,6,7-tetrahydro-2H-pyrazolo[3,4-b]pyridin-3-yl]-amine], the melting point lay within 99.3 to 104.9 °C. In turn, `CC/C=C(\CCC)c1c2c(nn1C)N(c1c(C)cc(C)cc1C)CCC2` [Example 6b, 2-Methyl-3-(1-propylbut-1-enyl)-7-(2,4,6-trimethylphenyl)-4,5,6,7-tetrahydro-2H-pyrazolo[3,4-b]pyridine] yielded a melting point of 101.6 to 102.6 °C. Then `CCCC(O)(CCC)c1c2c(nn1C)N(c1ccc(Cl)cc1Cl)CCC2` [Example 5e, 4-[7-(2,4-Dichlorophenyl)-2-methyl-4,5,6,7-tetrahydro-2H-pyrazolo[3,4-b]pyridin-3-yl]heptan-4-ol], with 121.4 to 122.6 °C; and `CC/C=C(\CCC)c1c2c(nn1C)N(c1c(C)cc(C)cc1Cl)CCC2` [Example 6a, 7-(2-Chloro-4,6-dimethylphenyl)-2-methyl-3-(1-propylbut-1-enyl)-4,5,6,7-tetrahydro-2H-pyrazolo[3,4-b]pyridine], with 86.7 to 88.2 °C. The figure for `CCCN(CC1CC1)C(=O)c1c2c(nn1C)N(c1c(C)cc(C)cc1Cl)CCC2` [Example 10a, 7-(2-Chloro-4,6-dimethylphenyl)-2-methyl-4,5,6,7-tetrahydro-2H-pyrazolo[3,4-b]pyridine-3-carboxylic acidcyclopropylmethylpropylamide] is 120.6 to 122 °C; for `CCCN(CCC)c1c2c(nn1C)N(c1c(C)cc(C)cc1C)CCC2` [Example 9ae, [2-Methyl-7-(2,4,6-trimethylphenyl)-4,5,6,7-tetrahydro-2H-pyrazoio[3,4-b]pyridin-3-yl]-dipropylamine] it is 88.9 to 91.5 °C.

`CCCC(CCC)c1c2c(nn1C)N(c1c(C)cc(C)cc1C)CCCC2` [Example 7d, 2-Methyl-3-(1-propylbutyl)-8-(2,4,6-trimethylphenyl)-2,4,5,6,7,8-hexahydro-1,2,8-triazaazulene] gave a melting point of 96 to 98.1 °C. Then `COc1cccc(OC)c1-c1c2c(nn1C)N(c1c(C)cc(C)cc1C)CCC2` [Example 13b, 3-(2,6-Dimethoxyphenyl)-2-methyl-7-(2,4,6-trimethylphenyl)-4,5,6,7-tetrahydro-2H-pyrazolo[3,4-b]pyridine], with 169.9 to 172.8 °C; and `CCC(COC)Nc1c2c(nn1C)N(c1c(C)cc(C)cc1C)CCC2` (stereo not drawn) [Example 9aj, (1-Methoxymethylpropyl)-[2-methyl-7-(2,4,6-trimethylphenyl)-4,5,6,7-tetrahydro-2H-pyrazolo[3,4-b]pyridin-3-yl]-amine], with 96.5 to 102.5 °C. `COCC(O)(COC)c1c2c(nn1C)N(c1c(C)cc(C)cc1C)CCC2` [Example 5f, 1,3-Dimethoxy-2-[2-methyl-7-(2,4,6-trimethylphenyl)-4,5,6,7-tetrahydro-2H-pyrazolo[3,4-b]pyridin-3-yl]propan-2-ol] returned a melting point of 120.3 to 121.8 °C. In turn, `CCOC(=O)Nc1c2c(nn1C)N(c1c(C)cc(C)cc1Cl)CCC2` [Example 8d, [7-(2-Chloro-4,6-dimethylphenyl)-2-methyl-4,5,6,7-tetrahydro-2H-pyrazolo[3,4-b]pyridin-3-yl]carbamic acid ethyl ester] displayed a melting point of 204 to 207.8 °C. Then `Cc1cc(C)c(N2CCCc3c2nn(C)c3CN2CCc3ccccc3C2)c(C)c1` (as salt: hydrochloride) [Example 11, 2-[2-Methyl-7-(2,4,6-trimethyl-phenyl)-4,5,6,7-tetrahydro-2H-pyrazolo[3,4-b]pyridin-3-ylmethyl]-1,2,3,4-tetrahydroisoquinolinedihydrochloride], with 236.4 to 241 °C; and `CCCC(O)(CCC)c1c2c(nn1C)N(c1c(C)cc(C)cc1C)CCC2` [Example 5b, 4-[2-Methyl-7-(2,4,6-trimethylphenyl)-4,5,6,7-tetrahydro-2H-pyrazolo[3,4-b]pyridin-3-yl]heptan-4-ol], with 126 to 127.9 °C; and `CC/C=C(\CCC)c1c2c(nn1C)N(c1c(C)cc(C)cc1C)CCCC2` [Example 6d, 2-Methyl-3-(1-propylbut-1-enyl)-8-(2,4,6-trimethylphenyl)-2,4,5,6,7,8-hexahydro-1,2,8-triazaazulene], with 101.9 to 103.9 °C.

In turn, `Cc1cc(C)c(N2CCCc3c2nn(C)c3Br)c(C)c1` [Example 3, 3-Bromo-2-methyl-7-(2,4,6-trimethyl-phenyl)-4,5,6,7-tetrahydro-2H-pyrazolo[3,4-b]pyridine] registered a melting point of 94.6 to 97.9 °C. Then `Cc1cc(C)c(N2CCCc3c2nn(C)c3C(O)c2ccco2)c(C)c1` (stereo not drawn) [Example 5i, Furan-2-yl[2-methyl-7-(2,4,6-trimethyl-phenyl)-4,5,6,7-tetrahydro-2H-pyrazolo[3,4-b]pyridin-3-yl]methanol], with 163.1 to 174.4 °C; and `Cc1cc(C)c(N2CCCc3c2nn(C)c3C(=O)O)c(Cl)c1` [Example 8a, 7-(2-Chloro-4,6-dimethylphenyl)-2-methyl-4,5,6,7-tetrahydro-2H-pyrazolo[3,4-b]pyridine-3-carboxylic acid], with 247.8 to 248.3 °C. Then `Cc1cc(C)c(N2CCCc3c2nn(C)c3C2(O)CCOCC2)c(C)c1` [Example 5l, 4-[2-Methyl-7-(2,4,6-trimethylphenyl)-4,5,6,7-tetrahydro-2H-pyrazolo[3,4-b]pyridin-3-yl]tetrahydropyran-4-ol], with 193 to 195.1 °C; and `CCC(=O)Nc1c2c(nn1C)N(c1c(C)cc(C)cc1C)CCC2` [Example 10c, N-[2-Methyl-7-(2,4,6-trimethylphenyl)-4,5,6,7-tetrahydro-2H-pyrazolo[3,4-b]pyridin-3-yl]propionamide], with 226 to 228 °C. Then `Cc1cc(C)c(N2CCCc3c2nn(C)c3C(=O)N2CCc3ccccc3C2)c(C)c1` [Example 10b, (3,4-Dihydro-1H-isoquinolin-2-yl)-[2-methyl-7-(2,4,6-trimethyl-phenyl)-4,5,6,7-tetrahydro-2H-pyrazolo[3,4-b]pyridin-3-yl]-methanone], with 80.3 to 87.7 °C.

Take `COCCC(O)(COC)c1c2c(nn1C)N(c1c(C)cc(C)cc1C)CCC2` (stereo not drawn) [Example 5g, 1,4-Dimethoxy-2-[2-methyl-7-(2,4,6-trimethylphenyl)-4,5,6,7-tetrahydro-2H-pyrazolo[3,4-b]pyridin-3-yl]butan-2-ol]: the melting point was 107.9 to 110.9 °C.

For `CCCC(O)(c1nccn1CC)c1c2c(nn1C)N(c1c(C)cc(C)cc1C)CCC2` (stereo not drawn) [Example 5k, 1-(1-Ethyl-1H-imidazol-2-yl)-1-[2-methyl-7-(2,4,6-trimethylphenyl)-4,5,6,7-tetrahydro-2H-pyrazolo[3,4-b]pyridin-3-yl]butan-1-ol], the melting point fell in the range of 94.9 to 100.9 °C. Take `COCC(=O)Nc1c2c(nn1C)N(c1c(C)cc(C)cc1C)CCC2` [Example 10d, 2-Methoxy-N-[2-methyl-7-(2,4,6-trimethyl-phenyl)-4,5,6,7-tetrahydro-2H-pyrazolo[3,4-b]pyridin-3-yl]acetamide]: the melting point is 133.8 to 135 °C. Then `CCCC(c1cccs1)c1c2c(nn1C)N(c1c(C)cc(C)cc1C)CCC2` (stereo not drawn) [Example 7c, 2-Methyl-3-(1-thiophen-2-ylbutyl)-7-(2,4,6-trimethylphenyl)-4,5,6,7-tetrahydro-2H-pyrazolo[3,4-b]pyridine], with 87.6 to 90.3 °C.

Compound `CCCC(COC)Nc1c2c(nn1C)N(c1c(C)cc(C)cc1C)CCC2` (stereo not drawn) [Example 9ak, (1-Methoxymethylbutyl)-[2-methyl-7-(2,4,6-trimethylphenyl)-4,5,6,7-tetrahydro-2H-pyrazolo[3,4-b]pyridin-3-yl]-amine] displayed a melting point of 100.1 to 104.4 °C.
